Here are results for two compounds from PMC8206213, “An L-2-hydroxyglutarate biosensor based on specific transcriptional regulator LhgR” (Nature Communications, 2021).

Several values for one entry are separate records, joined by “and”; a condition that tells them apart may be missing. Identical values can stand only once.

Assay [1] concerns LHGFR0N7C. Description: Specificity of purified LHGFR0N7C, emission ratio with 240 μM compounds. The format is binding, Pseudomonas putida W619. The note with it: 240 μM compound. Here is the method:
(§1) Purified L-2-HG biosensors and different compounds were diluted by 50 mM Tris-HCl buffer (pH 7.4), mixed together in a black 96-well plate at a volume ratio of 3:1, and the fluorescence intensities were measured using an EnSight microplate reader (PerkinElmer, USA) with excitation at 430 nm, emission at 485 nm (mTFP) and 528 nm (Venus). […] The [L-2-HG], Kd, and p refer to the L-2-HG concentration, apparent dissociation constant, and Hill slope, respectively. Emission spectra were recorded at 430 nm excitation, in steps of 2 nm. Excitation spectra were recorded using emission at 550 nm, excitation from 380 to 535 nm in steps of 2 nm.

The subject of assay [2] is LHGFR0N7C. The assay can be described thus: Influence of other compounds on the response of purified LHGFR0N7C to L-2-HG. The following applies: Suppl. Fig. 9b; L-2-HG alone or with the compound; three replicates. The format is binding, Pseudomonas putida W619. As to the method: as §1
The test system of assay [3] is LHGFR0N7C expressed in E. coli BL21(DE3). Description: Specificity of LHGFR0N7C expressed in E. coli BL21(DE3), 1 mM compounds. The format is cell-based. The note with it: Supplementary Fig. 13c. As to the method: To characterize the sensitivity and specificity of LHGFR expressed in E. coli BL21(DE3), 90 μL cell suspensions following 8 h carbon starvation were mixed with 10 μL increasing concentrations of L-2-HG or other compounds, and then added into a black 96-well plate (total 100 μL/per well), the fluorescence intensities were determined using an EnSight microplate reader (PerkinElmer, USA) and the following instrument settings: excitation at 430 nm, emission at 485 nm (mTFP) and 528 nm (Venus), time intervals of 5 min, the temperature at 37 °C, and shake at 180 rpm.

Assay [4] deals with LHGFR0N7C expressed in HEK293FT cells. The assay can be described thus: Specificity of LHGFR0N7C expressed in permeabilized HEK293FT cells, 1 mM compounds. It counts as cell-based, human (HEK293FT cells). The following applies: Supplementary Fig. 17d; Control about 1. As to the method:
To characterize the sensitivity and specificity of LHGFR expressed in HEK293FT cells, cells were trypsinized 48 h following transfection and suspended in 1× Hank’s balanced salt solution supplemented with 20 mM HEPES. […] Digitonin at a concentration of 10 μM was used to induce cell permeabilization and deplete intracellular L-2-HG for in vivo response curves construction. Then, the fluorescence intensities were determined by a SpectraMax i3 fluorescence plate reader (Molecular Devices, USA) with excitation at 430 nm and emission at 485 nm (mTFP) and 528 nm (Venus). Basal L-2-HG concentration in HEK293FT cells under physiological conditions was determined by substituting the emission ratios of non-permeabilized HEK293FT cells into the calibrated in vivo response curves.

In the case of `O=C(O)CC[C@@H](O)C(=O)O` [D-2-HG], the Emission ratio in the assay with LHGFR0N7C [1] is 1.984 and 1.994 and 1.98; in the assay on LHGFR0N7C [2], 2.616 and 2.6121 and 2.633. The “normalized emission ratio of biosensor expressed in E. coli” value (shortened to “normalized emission ratio of biosensor”) was 1.005 and 1.001 and 1.025 in assay [3] (time 0 min); 1.058 and 1.062 and 1.055 in assay [3] (time 5 min); 1.088 and 1.077 and 1.073 in assay [3] (time 10 min); 1.099 and 1.097 and 1.073 in assay [3] (time 15 min); 1.1106 and 1.107 and 1.081 in assay [3] (time 20 min); 1.121 and 1.111 and 1.082 in assay [3] (time 25 min). The “normalized emission ratio of biosensor” value in assay [3] (time 30 min) was 1.109 and 1.1104 and 1.081; in assay [3] (time 35 min), 1.129 and 1.12 and 1.084; in assay [3] (time 40 min) it was 1.119 and 1.117 and 1.099; in assay [3] (time 45 min), 1.1243 and 1.118 and 1.09; in assay [3] (time 50 min), 1.133 and 1.117 and 1.095; in assay [3] (time 55 min) it was 1.1262 and 1.1195 and 1.107. Also, the “normalized emission ratio of biosensor” value was 1.117 and 1.122 and 1.102 in assay [3] (time 60 min); 1.12 and 1.121 and 1.101 in assay [3] (time 65 min); 1.122 and 1.126 and 1.113 in assay [3] (time 70 min); 1.124 and 1.132 and 1.112 in assay [3] (time 75 min); 1.131 and 1.12 and 1.117 in assay [3] (time 80 min); 1.127 and 1.1355 and 1.123 in assay [3] (time 85 min). Besides, the “normalized emission ratio of biosensor” value in assay [3] (time 90 min) was 1.127 and 1.137 and 1.122. The Normalized emission ratio in assay [4] is 1.116 and 1.067 and 1.082.

Consider `O=C(O)CCCC(=O)O` [Glutarate, glutarate], for which the Emission ratio was 1.71 (2×) and 1.717 in the assay on LHGFR0N7C [1]; 2.576 and 2.574 and 2.627 in the assay with LHGFR0N7C [2]. In the assay on LHGFR0N7C [1], the “Induction of emission ratio changes” value was “None”. The “normalized emission ratio of biosensor” value in assay [3] (time 0 min) is 1.0192 and 1.012 and 1.0143; in assay [3] (time 5 min), 1.029 and 1.007 and 0.9939; in assay [3] (time 10 min), 1.033 and 1.008 (2×); in assay [3] (time 15 min) it was 1.028 and 1.024 and 1.005; in assay [3] (time 20 min), 1.023 and 1.015 and 1.006; in assay [3] (time 25 min) it was 1.0228 and 1.021 and 1.005. Also, the “normalized emission ratio of biosensor” value in assay [3] (time 30 min) was 1.026 and 1.014 and 1.016; in assay [3] (time 35 min), 1.019 and 1.016 (2×); in assay [3] (time 40 min), 1.0289 and 1.022 and 1.012; in assay [3] (time 45 min), 1.023 and 1.017 and 1.024; in assay [3] (time 50 min), 1.027 and 1.014 and 1.019; in assay [3] (time 55 min), 1.028 and 1.018 and 1.023. The “normalized emission ratio of biosensor” value is 1.03 and 1.018 and 1.0254 in assay [3] (time 60 min); 1.027 and 1.013 and 1.037 in assay [3] (time 65 min); 1.027 and 1.018 and 1.0281 in assay [3] (time 70 min); 1.034 and 1.022 and 1.035 in assay [3] (time 75 min); 1.0287 and 1.026 and 1.039 in assay [3] (time 80 min); 1.03 and 1.021 and 1.038 in assay [3] (time 85 min). Besides, the “normalized emission ratio of biosensor” value in assay [3] (time 90 min) is 1.036 and 1.0239 and 1.043. The Normalized emission ratio in assay [4] is 0.9993 and 0.9933 and 0.9442.
